Data as given in BindingDB's records for doi:10.3109/14756366.2011.639016 (Gazi University, 2013).

What was measured:
[1] = target: Carbonic anhydrase 1 (Homo sapiens, UniProt P00915); assay: Esterase Activity Assay; details: pH 7.4
Method: (§1) The enzymatic reaction contained 1.4 mL 0.05 M Tris-SO4 buffer(pH 7.4), 1 mL 3 mM 4-nitrophenylacetate, 0.5 mL H2O and 0.1 mL enzyme solution (total volume, 3.0 mL). A reference measurement was obtained by preparing themixture without the enzyme solution. All measurements were made in triplicate.

[2] = target: Carbonic anhydrase 2 (Homo sapiens, UniProt P00918); assay: Esterase Activity Assay; details: pH 7.4
Method: as §1

Chain of Carbonic anhydrase 1 (P00915 whole entry): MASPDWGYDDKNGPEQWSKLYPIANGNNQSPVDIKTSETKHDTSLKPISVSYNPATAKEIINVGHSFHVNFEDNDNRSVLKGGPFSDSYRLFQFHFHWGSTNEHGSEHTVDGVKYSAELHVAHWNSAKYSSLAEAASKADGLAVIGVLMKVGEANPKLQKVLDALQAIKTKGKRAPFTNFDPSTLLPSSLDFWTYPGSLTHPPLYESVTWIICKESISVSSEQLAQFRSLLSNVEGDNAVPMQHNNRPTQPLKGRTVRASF

Row | IC50 [1] | Ki [1] | IC50 [2] | Ki [2] | Compound
1 | 55 µM | 38.4 µM | – | – | Cc1ccc(-c2c(C#N)c(N)nc3c2CCSC3)s1 [CA inhibitor, 5i]
2 | 48 µM | 89 µM | – | – | Cc1ccc(-c2c(C#N)c(N)nc3c2CCCC3)o1 [CA inhibitor, 5e]
3 | 40 µM | 30.6 µM | 77 µM | 73 µM | Cc1ccc(-c2c(C#N)c(N)nc3c2CCCCC3)s1 [CA inhibitor, 5c]
4 | 34 µM | 31 µM | 99 µM | 182 µM | Cc1ccc(-c2c(C#N)c(N)nc3c2CCCC3)s1 [2-azanyl-4-(5-methylthiophen-2-yl)-5,6,7,8-tetrahydroquinoline-3-carbonitrile]
5 | 33 µM | 23.8 µM | 56 µM | 41 µM | Cc1ccc(-c2c(C#N)c(N)nc3c2CCC3)o1 [CA inhibitor, 5d]
6 | 53 µM | 58.5 µM | – | – | Cc1ccc(-c2c(C#N)c(N)nc3c2CCCCC3)o1 [CA inhibitor, 5f]
7 | 53 µM | 50.3 µM | – | – | Cc1ccc(-c2c(C#N)c(N)nc3c2CCSC3)o1 [CA inhibitor, 5l]
